In general, ΔTm refers to the shift of the melting midpoint relative to a reference.

These results are taken from ChEMBL document CHEMBL5308504, “Tm Shift (DSF) assay results for EUbOPEN Chemogenomics Library” (2023).

For experiment [1], the target named is Fibroblast growth factor receptor 3 (Homo sapiens) (UniProt P22607). The following applies: Compound concentration 20.0 uM, Protein concentration 2.0 uM, Result type QC Liability.
Description: Thermal Shift Assay. Domain: start/stop: P449-E759
Experiment [2] concerns the target T1, Peregrin (Homo sapiens) (UniProt P55201).
T1 sequence (whole entry): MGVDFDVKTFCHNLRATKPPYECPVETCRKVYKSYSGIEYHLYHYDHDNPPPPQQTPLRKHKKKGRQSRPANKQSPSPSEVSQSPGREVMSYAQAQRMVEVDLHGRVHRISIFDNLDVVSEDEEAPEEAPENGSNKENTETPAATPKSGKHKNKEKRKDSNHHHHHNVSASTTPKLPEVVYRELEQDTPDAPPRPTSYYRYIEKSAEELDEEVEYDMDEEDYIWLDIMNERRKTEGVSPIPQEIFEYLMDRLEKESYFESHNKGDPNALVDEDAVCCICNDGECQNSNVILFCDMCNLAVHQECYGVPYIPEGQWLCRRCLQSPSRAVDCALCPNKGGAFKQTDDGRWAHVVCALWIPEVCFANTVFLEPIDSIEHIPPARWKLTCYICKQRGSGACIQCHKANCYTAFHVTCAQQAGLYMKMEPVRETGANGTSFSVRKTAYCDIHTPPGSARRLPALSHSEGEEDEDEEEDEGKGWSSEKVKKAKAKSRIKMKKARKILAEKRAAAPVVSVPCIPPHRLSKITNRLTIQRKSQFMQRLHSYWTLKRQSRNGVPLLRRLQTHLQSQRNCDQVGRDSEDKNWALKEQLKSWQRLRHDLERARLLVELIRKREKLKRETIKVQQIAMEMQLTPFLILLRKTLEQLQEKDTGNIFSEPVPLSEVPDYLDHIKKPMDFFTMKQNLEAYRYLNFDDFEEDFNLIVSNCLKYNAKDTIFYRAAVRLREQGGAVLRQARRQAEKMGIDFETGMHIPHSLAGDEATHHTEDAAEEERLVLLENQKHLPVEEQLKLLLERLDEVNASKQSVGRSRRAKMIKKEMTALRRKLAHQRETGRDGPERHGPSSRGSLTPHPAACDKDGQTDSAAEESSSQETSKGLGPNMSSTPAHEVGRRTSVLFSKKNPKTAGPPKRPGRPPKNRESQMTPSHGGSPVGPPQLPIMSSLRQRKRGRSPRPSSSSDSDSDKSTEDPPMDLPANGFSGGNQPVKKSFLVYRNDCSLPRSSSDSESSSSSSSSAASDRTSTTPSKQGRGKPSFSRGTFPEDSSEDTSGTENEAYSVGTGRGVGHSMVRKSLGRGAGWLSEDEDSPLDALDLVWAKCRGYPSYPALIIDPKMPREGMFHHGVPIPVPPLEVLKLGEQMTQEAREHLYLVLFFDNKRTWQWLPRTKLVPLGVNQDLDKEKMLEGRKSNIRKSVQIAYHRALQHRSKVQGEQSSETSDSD
The following applies: Compound concentration 20.0 uM, Protein concentration 2.0 uM, Result type QC Liability.

Chain of Fibroblast growth factor receptor 3 (Homo sapiens) (P22607 23-806 limits assumed): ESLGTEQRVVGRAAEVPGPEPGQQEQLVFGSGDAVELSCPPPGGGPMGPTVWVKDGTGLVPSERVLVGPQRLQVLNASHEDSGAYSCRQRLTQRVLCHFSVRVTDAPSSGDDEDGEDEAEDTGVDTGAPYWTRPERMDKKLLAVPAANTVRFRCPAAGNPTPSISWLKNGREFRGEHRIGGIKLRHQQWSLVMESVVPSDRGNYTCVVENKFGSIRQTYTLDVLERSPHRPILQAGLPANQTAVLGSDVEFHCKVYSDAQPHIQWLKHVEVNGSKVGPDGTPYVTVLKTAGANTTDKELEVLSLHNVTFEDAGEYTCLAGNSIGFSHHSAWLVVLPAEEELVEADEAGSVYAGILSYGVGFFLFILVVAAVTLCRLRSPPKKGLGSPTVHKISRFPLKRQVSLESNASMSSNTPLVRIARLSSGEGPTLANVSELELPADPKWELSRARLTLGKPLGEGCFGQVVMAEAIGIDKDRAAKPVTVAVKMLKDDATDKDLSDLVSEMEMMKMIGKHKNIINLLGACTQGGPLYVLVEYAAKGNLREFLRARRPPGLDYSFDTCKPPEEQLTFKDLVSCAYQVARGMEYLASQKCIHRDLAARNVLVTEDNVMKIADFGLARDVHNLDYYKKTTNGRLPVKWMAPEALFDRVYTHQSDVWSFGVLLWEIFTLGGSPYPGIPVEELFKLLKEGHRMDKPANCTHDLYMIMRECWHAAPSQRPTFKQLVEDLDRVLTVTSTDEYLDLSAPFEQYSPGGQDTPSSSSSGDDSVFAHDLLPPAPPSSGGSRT

As to `CN1Cc2nccc(-c3cn(C)nc3-c3ccc(F)cc3)c2C1=O`, the ΔTm in experiment [1] is 0.27 °C; in experiment [2], -1.84 °C.

For the molecule `CC(C)(C#Cc1ccc(NC(=O)COc2ccccc2C(=O)c2ccccc2)c(Cl)c1)C(=O)O`, the ΔTm was 0.52 °C in experiment [1] and -4.06 °C in experiment [2].

With `C[C@@H](COCCC(=O)N1CCN(c2ncc(C(F)(F)F)cn2)CC1)Nc1cn[nH]c(=O)c1C(F)(F)F`, the shift in melting temperature (ΔTm) in experiment [1] is 0.48 °C; in experiment [2], -0.15 °C.

Turning to `CNc1nc(Nc2ccc(C(=O)N3CCOCC3)cc2OC)ncc1Cl`, the ΔTm in experiment [1] is 0.95 °C; in experiment [2], -1.86 °C.

Regarding `COc1cc(N2CCN(C)CC2)ccc1Nc1ncc2c(n1)N(C)c1ccccc1C(=O)N2CC(F)(F)F`, the ΔTm in experiment [1] is 0.22 °C; in experiment [2] it was -2.22 °C.

On to `Cc1cc(-c2ccnc(Nc3cnn(C)c3)n2)ccc1CNC(=O)N1CC(OC(C)C)C1`, for which the values for the ΔTm in experiment [1] and in experiment [2] were 2.34 °C and -1.39 °C, respectively.

As to `Cc1cc(Cl)ccc1S(=O)(=O)NC[C@H]1C2CCC(CC2)[C@@H]1/C=C\CCCC(=O)O`, the results for the ΔTm in experiment [1] and in experiment [2] were 0.12 °C and -2.88 °C, respectively.

Turning to `N[C@@H]1CCCC[C@H]1Oc1ccc2ncc(-c3cc4ccccc4o3)n2n1`, the results for the ΔTm in experiment [1] and in experiment [2] were 0.36 °C and -2.67 °C, respectively.

`O=C(O)c1ccc(OCCCc2ccc(OCCCCOC3CCCCC3)cc2)c(C(=O)NC2CCCC(C(=O)O)C2)c1` (stereo unspecified): the values for the thermal shift (ΔTm) in experiment [1] and in experiment [2] were 0.54 °C and -4.19 °C, respectively.

`CO[C@H]1CC[C@H](N(c2cc(F)c(Oc3ncc(Cn4nccn4)cc3C(F)(F)F)cc2C(=O)O)C(=O)[C@H]2CC[C@H](C)CC2)CC1`: the figures for the ΔTm in experiment [1] and in experiment [2] were 0.62 °C and -4.09 °C, respectively.

Take `CC(C)(c1ccc(OCc2cccc(COc3ccc(C(=N)N)cc3)c2)cc1)c1ccc(O[C@@H]2O[C@H](C(=O)O)[C@@H](O)[C@H](O)[C@H]2O)cc1`: the results for the ΔTm in experiment [1] and in experiment [2] were -5.02 °C and -6.79 °C, respectively.

`Cc1cccc(-c2nn3c(c2-c2ccnc4ccc(C(N)=O)cc24)CCC3)n1`: the ΔTm in experiment [1] was 1.13 °C; in experiment [2] it was -0.93 °C.

As for `Cc1cc(=O)n(C)c2cc(N3C(=O)CC[C@H](NS(=O)(=O)CC(C)C)[C@H]3c3ccc(Cl)cc3)ccc12`, the ΔTm is 0.86 °C in experiment [1] and -0.8 °C in experiment [2].

With `CCN(CC)CCO[C@H]1CC[C@@]2(C)C(=CC[C@@H]3[C@@H]2CC[C@]2(C)C(=O)CC[C@@H]32)C1`, the ΔTm in experiment [1] was 0.44 °C; in experiment [2], -0.77 °C.

With `COc1c(NC(=O)c2cc3cccc(Oc4ccnc(C(=O)N5CCN(C)CC5)c4)c3n2C)cc(C(C)(C)C)cc1NS(C)(=O)=O`, the values for the ΔTm in experiment [1] and in experiment [2] were 1.12 °C and -2.38 °C, respectively.

`CCN1CCN(Cc2ccc(Nc3ncc(F)c(-c4cc(F)c5nc(C)n(C(C)C)c5c4)n3)nc2)CC1`: the ΔTm is 3.23 °C in experiment [1] and -1.26 °C in experiment [2].

With `CN(C)C(=O)c1cc2cnc(Nc3ccc(N4CCN(CCCCNC(=O)COc5cccc6c5C(=O)N(C5CCC(=O)NC5=O)C6=O)CC4)cn3)nc2n1C1CCCC1` (stereo unspecified), the ΔTm in experiment [1] is 0.68 °C; in experiment [2], -1.94 °C.

For the molecule `CC(C)C(=O)N[C@@H]1CCN(C(=O)Nc2nc3c(s2)-c2nc(-c4ccccc4Cl)ncc2CC3)C1`, the ΔTm is 3.87 °C in experiment [1] and -1.39 °C in experiment [2].

Turning to `CCS(=O)(=O)Nc1cccc(Oc2cc(F)cc(Nc3ccc(I)cc3F)c2NS(=O)(=O)C2CC2)c1`, the ΔTm is -1.54 °C in experiment [1] and -1.34 °C in experiment [2].

With `Cc1n[nH]c2ncc(C(=O)N3CCC[C@H]3c3ccc(Cl)cc3)cc12`, the ΔTm was 0.54 °C in experiment [1] and -1.04 °C in experiment [2].

In the case of `NC(=O)OC[C@H](NC(=O)Cn1nc(-c2ccc(Cl)cc2)n(C[C@H](O)C(F)(F)F)c1=O)c1cccc(C(F)(F)F)c1`, the ΔTm in experiment [1] is 1.19 °C; in experiment [2], -3.24 °C.

As to `CCCCCCC(Sc1nc(Cl)cc(NCc2ccc(-c3ccccc3)cc2)n1)C(=O)O` (stereo unspecified), the ΔTm in experiment [1] is 0.79 °C; in experiment [2], -6.38 °C.

Turning to `COc1cc(-c2cncc(-c3cnn(C4CCNCC4)c3)c2)cc(OC)c1OC`, the values for the ΔTm in experiment [1] and in experiment [2] were 0.93 °C and -0.73 °C, respectively.
